The text below walks through data of patent publication US20100184815A1 (priority 2008, published 2010).

Where two headings read alike, the source gives them in different places.

Series [1] in a line: Metabolism studies using human liver microsomal preparations. The series is classed as in vitro ADME. The conditions noted are these: for HLMs t1/2 (min) / half-life: pooled human liver microsomes, with NADPH (CYP system active), 37° C.; for HLMs Predominant Enzyme: comparison of half life with and without NADPH: Esterase, CYP or Mixed; for half-life: pH 7.4, read-out: HLMs t1/2. Here is the method:
Compounds were incubated in pooled human liver microsomes (HLMs) in the presence or absence of an NADPH-generating system. NADPH is required for the activity of cytochrome P450 (CYP) and other oxidative enzymes present in HLMs, but not for esterase activity. An additional incubation was carried out in the absence of HLM to assess compound stability. The disappearance of parent and the appearance of the corresponding acid metabolite were monitored over the time course of the incubations using LC-MS/MS.
A stock solution (20 mM) of each proprietary compound in DMSO was prepared and store at −20° C. until needed. A working stock solution (0.2 mM) was prepared for each proprietary compound by adding an aliquot of the stock solution (10 μL) to acetonitrile (990 μL).
An aliquot of the HLM solution was removed from the −80° C. freezer and placed on ice. Tris Buffer (50 mM, pH 7.4) containing MgCl2 (hexahydrate, 5 mM) was pre-incubated in a 37° C. water bath. A set of Eppendorf microfuge tubes (1.5 mL) was appropriately labeled. To each tube was added Tris buffer with or without the NADPH generating system. An aliquot of pooled HLMs was added to all the incubations except those that were the buffer control.
Tubes were preincubated for 5 min in a shaking incubator bath (37° C., 900 rpm) and the reaction was initiated by adding an aliquot of the proprietary working solution (5 μL). The additions were timed carefully in order to coordinate the sample collections below. A small aliquot (50 μL) was removed at […] and delivered to the respective tubes containing dextrorphan (100 μL of 0.5 μg/mL solution) in dissolved in methanol or acetonitrile. The samples were centrifuged at 14000 g for 15 minutes at 4° C. The supernatant was transferred to clean labeled HPLC injection vials and stored at −80° C. until analyzed. An aliquot of the supernatant […] was added to water (75 μL), mixed and injected onto the LC-MS/MS system for analysis.
“HLM t1/2” represents the observed half life of the compound under conditions that included NADPH, i.e., the CYP system was active. Comparison to the half life of the test article under (−)NADPH conditions, the enzyme predominant ly responsible for the metabolism of the test article. […] Where roughly equal metabolism is seen by each enzyme system, “mixed” is noted in the “Predominant enzyme” column.

The target in a further series is T1, Gal-4 hPPARα (Homo sapiens, UniProt Q07869).
T1 construct: Plasmids pGal4-hPPARα, pGal4-hPPARγ, pGal4-hPPARδ and pG5-TK-pGL3 were constructed as previously described by Staels, Bart, et al., Nature 1998 Jun; 25
T1 sequence (Q07869 200-468 limits assumed): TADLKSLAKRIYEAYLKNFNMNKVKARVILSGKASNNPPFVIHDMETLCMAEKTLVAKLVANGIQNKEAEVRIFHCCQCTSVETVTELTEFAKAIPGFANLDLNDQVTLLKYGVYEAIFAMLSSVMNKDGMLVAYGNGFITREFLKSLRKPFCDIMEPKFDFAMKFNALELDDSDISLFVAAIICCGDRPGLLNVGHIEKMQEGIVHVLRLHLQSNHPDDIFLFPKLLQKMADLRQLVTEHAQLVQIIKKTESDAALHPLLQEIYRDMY
In words: Gal4-hPPARα transient transfection reporter assay in Cos cells. The series is classed as cell-based. As to conditions: luciferase reporter, 24 hours with compound, scale 1-5, read-out: Gal-4 hPPAR α EC50 (scaled number). An outline of the steps: (§1)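 Cos cells transiently co-transfected with Gal4-hPPAR expression plasmid, pG5-TK-pGL3 luciferase reporter and β-galactosidase control, then treated 24 h with increasing compound concentrations in DMEM containing 0.2% FCS. Luciferase normalised to β-galactosidase; EC50 from curve fit, at least three experiments.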

In a further series the test system is pig liver esterase. In words: Metabolism studies using pig liver esterase. The series is classed as in vitro ADME. The conditions noted are these: 37° C. The method, then:
The esterase-mediated metabolism of these compounds was studied using commercially available pig liver esterase in the presence and absence of human plasma proteins. The disappearance of parent was monitored over the time course of the incubations using a LC-UV detection system.
A stock solution and working stock solution was prepared for each proprietary compound as described for the human liver microsomal incubations. Working solutions of pig liver esterase in potassium phosphate buffer ([…], pH 7.4) and pig liver esterase in human plasma protein were prepared by dissolving pig liver esterase (2.51 mg) in the phosphate buffer or plasma protein solutions, respectively.
A set of three Eppendorf microfuge tubes (1.5 mL) was appropriately labeled. To each tube was added 1.5 mL of phosphate buffer, pig liver esterase in buffer, or pig liver esterase in human plasma protein solution. These solutions were pre-incubated (37° C., 900 rpm) and the reactions were initiated by adding an aliquot (37.5 μL) of the working solution of proprietary compound to each tube. An aliquot (100 μL) from each tube was removed at time 0, 5, 30, 60, and 120 min and added to a tube containing acetonitrile (200 μL) to stop the reaction.
The samples were centrifuged at 14000 g for 15 minutes at 4° C. The supernatant was transferred to clean labeled HPLC injection vials and stored at −80° C. until analyzed. An aliquot of the supernatant (25 μL) was injected onto the LC-UV system for analysis.
Half lives of a sample of test articles is noted in the following table. Half life was determined in the presence or absence of plasma.

A further series concerns the target T2, Gal-4 hPPARγ (Homo sapiens, UniProt P37231).
T2 construct: Plasmids pGal4-hPPARα, pGal4-hPPARγ, pGal4-hPPARδ and pG5-TK-pGL3 were constructed as previously described by Staels, Bart, et al., Nature 1998 Jun; 25
T2 sequence (P37231 238-505 limits assumed): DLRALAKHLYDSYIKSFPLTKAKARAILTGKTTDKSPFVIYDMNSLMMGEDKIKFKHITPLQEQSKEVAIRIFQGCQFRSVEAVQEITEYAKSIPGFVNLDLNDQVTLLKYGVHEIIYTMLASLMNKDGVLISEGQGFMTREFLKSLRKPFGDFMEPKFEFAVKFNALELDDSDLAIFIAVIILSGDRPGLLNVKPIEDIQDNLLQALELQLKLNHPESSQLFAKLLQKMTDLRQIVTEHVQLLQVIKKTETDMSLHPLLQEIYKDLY
In words: Gal4-hPPARγ transient transfection reporter assay in Cos cells. The series is classed as cell-based. As to conditions: luciferase reporter, 24 hours with compound, scale 1-5, read-out: Gal-4 hPPAR γ EC50 (scaled number). The procedure, abridged: as §1
In general terms: A reporter such as luciferase makes a cellular process visible.

In a further series the target is T3, Gal-4 hPPARβ/δ (Homo sapiens, UniProt Q03181).
T3 construct: Plasmids pGal4-hPPARα, pGal4-hPPARγ, pGal4-hPPARδ and pG5-TK-pGL3 were constructed as previously described by Staels, Bart, et al., Nature 1998 Jun; 25
T3 sequence (Q03181 171-441 limits assumed): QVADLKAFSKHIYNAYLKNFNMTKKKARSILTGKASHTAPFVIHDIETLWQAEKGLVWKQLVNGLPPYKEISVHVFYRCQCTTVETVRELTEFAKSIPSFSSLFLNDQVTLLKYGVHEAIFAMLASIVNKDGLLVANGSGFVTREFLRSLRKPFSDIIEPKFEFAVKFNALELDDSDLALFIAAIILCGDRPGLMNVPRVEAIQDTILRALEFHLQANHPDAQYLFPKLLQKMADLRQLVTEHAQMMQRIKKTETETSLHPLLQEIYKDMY
Nature of the series: Gal4-hPPARδ transient transfection reporter assay in Cos cells. The series is classed as cell-based. The conditions noted are these: luciferase reporter, 24 hours with compound, scale 1-5, read-out: Gal-4 hPPAR β/δ EC50 (scaled number). The procedure, abridged: as §1

The mark [2] stands for this setting: pig liver esterase in human plasma protein solution, read-out: Pig Liver Esterase (t1/2 min.) (+) Plasma.
Setting [3] is: pig liver esterase in phosphate buffer pH 7.4, no plasma, read-out: Pig Liver Esterase (t1/2 min.) (−) Plasma.
Setting [4] is: pig liver esterase in human plasma protein solution.

In the case of `C[C@@H](OC(=O)c1ccc(SC(C)(C)C(=O)O)cc1)c1cn(Cc2ccc(C(F)(F)F)cc2)nn1` [Compound 95, (R)-2-methyl-2-(4-((1-(1-(4-(trifluoromethyl)benzyl)-1H-1,2,3-triazol-4-yl)ethoxy)carbonyl)phenylthio)propanoic acid], the “HLMs t1/2 (min)” value in series [1] is “Stable”. The EC50 on Gal-4 hPPARα is 1 to 50 nM; on Gal-4 hPPARγ, greater than 1000 nM; on Gal-4 hPPARβ/δ, greater than 1000 nM. Also, the half-life at 4.9 µM in the series on pig liver esterase (setting [2]) is greater than 120 min; in the series with pig liver esterase (setting [3]), 68 min.
As to `CCCCCCn1c(COC(=O)Cc2ccc(OC(C)(C)C(=O)O)cc2)nn(Cc2ccc(C)cc2)c1=O` [Compound 014, 2-(4-(2-((4-hexyl-1-(4-methylbenzyl)-5-oxo-4,5-dihydro-1H-1,2,4-triazol-3-yl)methoxy)-2-oxoethyl)phenoxy)-2-methylpropanoic acid], the “HLMs t1/2 (min)” value in series [1] is “Stable”. In addition, in the series with pig liver esterase (setting [4]), the “Pig Liver Esterase (t1/2 min.) (+) Plasma” value (shortened to “Pig Liver Esterase”) is “Stable”. For the same compound, in the series on pig liver esterase (setting [3]), the half-life at 4.9 µM came out at 19 min.
For the compound `CCCn1c([C@H](C)OC(=O)c2ccc(SC(C)(C)C(=O)O)cc2)nn(Cc2ccc(C)cc2)c1=O` [Compound 248, 4-(1-Carboxy-1-methyl-ethylsulfanyl)-benzoic acid (S)-1-[1-(4-methyl-benzyl)-5-oxo-4-propyl-4,5-dihydro-1H-1,2,4-triazol-3-yl]-ethyl ester], the “HLMs t1/2 (min)” value in series [1] was “Stable”. The EC50 is 51 to 200 nM at Gal-4 hPPARα, greater than 1000 nM at Gal-4 hPPARγ and greater than 1000 nM on Gal-4 hPPARβ/δ. Besides, the half-life at 4.9 µM with pig liver esterase (setting [2]) and in the series with pig liver esterase (setting [3]) was greater than 120 min in each case.
With `CCCCCCCCn1c(COC(=O)Cc2ccc(OC(C)(C)C(=O)O)cc2)nn(Cc2ccc(C)cc2)c1=O` [Compound 012, 2-methyl-2-(4-(2-((1-(4-methylbenzyl)-4-octyl-5-oxo-4,5-dihydro-1H-1,2,4-triazol-3-yl)methoxy)-2-oxoethyl)phenoxy)propanoic acid], the “HLMs t1/2 (min)” value in series [1] is on record as “Stable”. Further, the “Pig Liver Esterase” value in the series with pig liver esterase (setting [4]) is reported as “Stable”. For the same compound, the half-life at 4.9 µM in the series with pig liver esterase (setting [3]) stood at 12 min.
For `C[C@@H](Cc1cn(Cc2ccc(C(F)(F)F)cc2)nn1)OC(=O)c1ccc(SC(C)(C)C(=O)O)cc1` [Compound 147, 4-(1-Carboxy-1-methyl-ethylsulfanyl)-benzoic acid (S)-1-methyl-2-[1-(4-trifluoromethyl-benzyl)-1H-1,2,3-triazol-4-yl]-ethyl ester], in series [1], the “HLMs Predominant Enzyme” value is “Mixed” and the half-life is 73 min. Besides, the “Pig Liver Esterase” value in the series on pig liver esterase (setting [4]) is “Stable”. The half-life at 4.9 µM in the series on pig liver esterase (setting [3]) worked out at 77 min.
As for `CCCn1nc(Cc2ccc(C)cc2)cc1COC(=O)c1ccc(OC(C)(C)C(=O)O)cc1` [Compound 54, 4-(1-Carboxy-1-methyl-ethoxy)-benzoic acid 5-(4-methyl-benzyl)-2-propyl-2H-pyrazol-3-ylmethyl ester], in series [1], the “HLMs Predominant Enzyme” value is listed as “Esterase”. Moreover, the half-life in series [1] worked out at 30 min. Further, the half-life at 4.9 µM is greater than 120 min with pig liver esterase (setting [2]) and 3 min with pig liver esterase (setting [3]).
For `CCCn1nc(Cc2ccc(C)cc2)cc1COC(=O)c1ccc(SC(C)(C)C(=O)O)cc1` [Compound 55, 4-(1-Carboxy-1-methyl-ethylsulfanyl)-benzoic acid 5-(4-methyl-benzyl)-2-propyl-2H-pyrazol-3-ylmethyl ester], the “HLMs Predominant Enzyme” value in series [1] is given as “Esterase”. For the same compound, the half-life in series [1] was 5 min. Further, the half-life at 4.9 µM was 16 min in the series with pig liver esterase (setting [2]) and less than 1 min in the series on pig liver esterase (setting [3]).
Regarding `CC(C)c1ccc(-n2nncc2COC(=O)c2ccc(SC(C)(C)C(=O)O)cc2)cc1` [Compound 59, 2-(4-(((1-(4-isopropylphenyl)-1H-1,2,3-triazol-5-yl)methoxy)carbonyl)phenylthio)-2-methylpropanoic acid], in series [1], the “HLMs Predominant Enzyme” value is recorded as “Esterase” and the half-life was found to be 30 min. In addition, in the series with pig liver esterase (setting [2]), the half-life at 4.9 µM amounted to 44 min. In the series on pig liver esterase (setting [3]), the half-life at 4.9 µM stood at 15 min.
On to `CCCn1c(COC(=O)c2ccc(OC(C)(C)C(=O)O)cc2)nn(Cc2ccc(C(=O)O[C@H](C)C(F)(F)C(F)(F)F)cc2)c1=O` [Compound 174, (R)-2-methyl-2-(4-(((5-oxo-1-(4-((3,3,4,4,4-pentafluorobutan-2-yloxy)carbonyl)benzyl)-4-propyl-4,5-dihydro-1H-1,2,4-triazol-3-yl)methoxy)carbonyl)phenoxy)propanoic acid], for which, in series [1], the “HLMs Predominant Enzyme” value is reported as “Esterase” and the half-life worked out at 10 min. Also, the half-life at 4.9 µM with pig liver esterase (setting [2]) stood at 17 min. Besides, the half-life at 4.9 µM in the series with pig liver esterase (setting [3]) is less than 5 min.
For the compound `Cc1ccc(Cn2nncc2COC(=O)c2ccc(OC(C)(C)C(=O)O)cc2)cc1` [Compound 63, 2-methyl-2-(4-(((1-(4-methylbenzyl)-1H-1,2,3-triazol-5-yl)methoxy)carbonyl)phenoxy)propanoic acid], in series [1], the “HLMs Predominant Enzyme” value is “Stable” and the “HLMs t1/2 (min)” value was “Stable”. The “Pig Liver Esterase” value with pig liver esterase (setting [4]) was “Stable”. Also, the half-life at 4.9 µM in the series with pig liver esterase (setting [3]) amounted to 120 min.
